From the supplement of paper PMC10307832

Compound: CN(C)CC1=CC(=CC=C1)N=C(C2=CC=CC=C2)C3=C(NC4=C3C=CC(=C4)C(=O)N(C)C)O + COc1cc2c(Oc3ccc(NC(=O)C4(C(=O)Nc5ccc(F)cc5)CC4)cc3F)ccnc2cc1OCCCN1CCOCC1 [Foretinib] (partner 0.25 µM)
Test: relative viability (nuclei count vs DMSO), 5 days (fraction); higher = more cells survive
Summary of the method: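 The day after seeding in 1536-well plates, lung cancer cell lines were treated by pin tool with a single drug, or with a fixed anchor-drug dose together with five library-drug doses (not always all listed) in √10 steps. After 5 days, a combined fix-and-stain solution (final 0.05% Triton X-100, 1% formaldehyde, 1 ug/ml Hoechst) was added. Nuclei counted on 4× images gave relative viability as treated counts over vehicle counts, reported as the median of duplicate plates.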

Row | Cell Line | relative viability (first compound 0.08 µM) | relative viability (first compound 0.253 µM) | relative viability (first compound 0.8 µM) | relative viability (first compound 2.53 µM) | relative viability (first compound 8 µM)
1 | LU99A | 0.787 | 0.842 | 0.926 | 0.809 | 0.781
2 | HCC-15 | 1.01 | 1.02 | 1.1 | 0.99 | 1
3 | HCC-827 | 1.05 | 1.08 | 1.01 | 1.02 | 0.876
4 | NCI-H1734 | 0.765 | 0.839 | 0.819 | 0.771 | 0.807
5 | NCI-H3122 | 0.995 | 0.983 | 1.01 | 1.02 | 0.966
6 | PC-3 [JPC-3] | 1.06 | 1.09 | 0.916 | 1.03 | 1.06
7 | NCI-H2087 | 1 | 1.07 | 1.19 | 1.09 | 0.955
8 | 201T | 1.12 | 1.01 | 1.07 | 0.957 | 0.774
9 | NCI-H1993 | 0.721 | 0.811 | 0.81 | 0.824 | 0.935
10 | NCI-H2085 | 1 | 0.865 | 1.15 | 1.13 | 0.954
11 | BEN | 0.705 | 0.68 | 0.641 | 0.68 | 0.596
12 | RERF-LC-KJ | 0.865 | 0.894 | 0.873 | 0.833 | 0.907
13 | SK-MES-1 | 0.84 | 0.975 | 0.844 | 0.87 | 0.901
14 | PC-14 | 0.9 | 0.903 | 1.02 | 0.934 | 0.951
15 | NCI-H1563 | 0.941 | 0.967 | 0.917 | 0.857 | 0.948
16 | NCI-H2009 | 1.17 | 1.22 | 1.21 | 1.23 | 1.11
17 | LK-2 | 1.15 | 1.16 | 1.27 | 1.15 | 1.17
18 | NCI-H838 | 1.13 | 0.969 | 1 | 0.888 | 0.938
19 | LC-2-ad | 0.993 | 0.881 | 0.884 | 0.919 | 0.969
20 | NCI-H1755 | 0.941 | 0.903 | 0.989 | 0.874 | 0.918
21 | NCI-H1944 | 0.888 | 0.923 | 0.877 | 0.86 | 0.785
22 | CAL-12T | 1.09 | 1.22 | 1.44 | 0.864 | 1.29
23 | NCI-H661 | 0.996 | 0.963 | 0.957 | 0.966 | 0.883
24 | A-427 | 1.07 | 1.17 | 1.07 | 0.986 | 0.883
25 | COR-L23 | 1.08 | 0.972 | 1.03 | 0.88 | 0.925

Row | Cell Line | relative viability (first compound 0.08 µM) | relative viability (first compound 0.253 µM) | relative viability (first compound 0.8 µM) | relative viability (first compound 2.53 µM) | relative viability (first compound 8 µM)
26 | NCI-H520 | 0.799 | 0.789 | 0.695 | 0.712 | 0.649
27 | NCI-H23 | 1.1 | 1.1 | 0.622 | 1.18 | 0.81
28 | EKVX | 0.88 | 1.06 | 0.555 | 0.776 | 0.804
29 | HCC-78 | 0.564 | 0.582 | 0.472 | 0.61 | 0.547
30 | NCI-H596 | 0.593 | 0.971 | 0.845 | 0.883 | 0.807
31 | UMC-11 | 1.01 | 1.07 | 1.06 | 1.05 | 0.997
32 | NCI-H460 | 0.995 | 1.07 | 0.994 | 0.928 | 1.04
33 | EMC-BAC-2 | 1.11 | 0.99 | 0.963 | 0.944 | 0.958
34 | SW 900 | 0.867 | 0.842 | 0.7 | 0.887 | 0.861
35 | ABC-1 | 1.31 | 1.12 | 0.851 | 1 | 1.28
36 | NCI-H647 | 1.26 | 1.1 | 1.12 | 1.15 | 1
37 | H3255 | 0.857 | 0.857 | 0.631 | 1.04 | 0.848
38 | IA-LM | 1.16 | 1.19 | 1.3 | 1.18 | 1.32
39 | NCI-H1975 | 0.863 | 0.984 | 0.888 | 0.88 | 0.78
40 | NCI-H2023 | 0.766 | 0.731 | 0.785 | 0.737 | 0.602
41 | NCI-H650 | 1.16 | 1.08 | 0.988 | 0.846 | 1.07
42 | NCI-H1793 | 0.745 | 0.66 | – | 0.734 | 0.621
43 | NCI-H1651 | 0.865 | 0.777 | 0.87 | 0.735 | 0.816
44 | NCI-H1395 | 0.97 | 1.01 | 1.04 | 0.854 | 0.92
45 | NCI-H1437 | 1.3 | 1.22 | 1.35 | 1.27 | 1.33
46 | HOP-62 | 1.08 | 1.01 | 1.12 | 1.05 | 1.17
47 | NCI-H2347 | 0.969 | 1.02 | 0.809 | 1.11 | 1
48 | NCI-H2170 | 0.99 | 1.01 | 1.03 | 0.966 | 0.857
49 | EPLC-272H | 0.654 | 0.776 | 0.534 | 0.681 | 0.51
50 | A549 | 0.988 | 0.927 | 0.948 | 0.899 | 1.02

Row | Cell Line | relative viability (first compound 0.08 µM) | relative viability (first compound 0.253 µM) | relative viability (first compound 0.8 µM) | relative viability (first compound 2.53 µM) | relative viability (first compound 8 µM)
51 | NCI-H2405 | 1.04 | 1.08 | 1.01 | 0.992 | 1.04
52 | SW 1573 | 0.919 | 0.808 | 0.759 | 0.867 | 0.973
53 | NCI-H358 | 0.696 | 0.808 | 0.515 | 0.585 | 0.506
54 | LCLC-97TM1 | 0.958 | 0.821 | 0.822 | 0.917 | 0.975
55 | HCC-366 | 0.903 | 0.889 | 0.888 | 0.83 | 0.85
56 | NCI-H322M | 0.887 | 1.02 | 0.831 | 0.831 | 0.666
57 | NCI-H1355 | 0.684 | 1.05 | 0.922 | 0.919 | 1.02
58 | COR-L 105 | 1.1 | 1.05 | 0.967 | 0.926 | 0.991
59 | Calu-6 | 0.923 | 0.882 | 0.948 | 0.906 | 0.929
60 | NCI-H1915 | 1.03 | 1.06 | 1.13 | 1.12 | 1.05
61 | NCI-H1650 | 1.17 | 1.12 | 1.08 | 1.05 | 0.977
62 | NCI-H2126 | 1.1 | 1.13 | 1.17 | 1.16 | 1.02
63 | LCLC-103H | 0.746 | 0.826 | 0.825 | 0.841 | 0.508
64 | HARA | 0.398 | 1.02 | 1.06 | 0.867 | 0.79
65 | NCI-H727 | 0.896 | 0.877 | 0.804 | 0.942 | 0.664
66 | LOU-NH91 | 0.931 | 0.882 | 0.732 | 0.917 | 0.936
67 | LXF-289 | 0.966 | 0.9 | 1.03 | 0.93 | 0.929
68 | NCI-H1666 | 1.03 | 1.01 | 1 | 1 | 1.11
69 | NCI-H441 | 1.11 | 1.01 | 1.24 | 1.17 | 0.873
70 | SK-LU-1 | 0.891 | 0.881 | 0.857 | 0.651 | 0.581
71 | ChaGo-K-1 | 0.945 | 0.911 | 1.04 | 0.902 | 0.771
72 | NCI-H1703 | 0.334 | 0.489 | 0.333 | 0.261 | 0.316
73 | NCI-H2228 | 0.946 | 0.904 | 0.77 | 0.88 | 0.708
